The target of the experiment is T1, ACAT (acyl-coenzyme A cholesterol acyltransferase) (Oryctolagus cuniculus, UniProt G1SFD9).
T1 construct: A rabbit small intestinal microsome fraction was prepared in the usual way; from tissue; host or cells: rabbit small intestine, microsome fraction
T1 sequence (G1SFD9 1-524): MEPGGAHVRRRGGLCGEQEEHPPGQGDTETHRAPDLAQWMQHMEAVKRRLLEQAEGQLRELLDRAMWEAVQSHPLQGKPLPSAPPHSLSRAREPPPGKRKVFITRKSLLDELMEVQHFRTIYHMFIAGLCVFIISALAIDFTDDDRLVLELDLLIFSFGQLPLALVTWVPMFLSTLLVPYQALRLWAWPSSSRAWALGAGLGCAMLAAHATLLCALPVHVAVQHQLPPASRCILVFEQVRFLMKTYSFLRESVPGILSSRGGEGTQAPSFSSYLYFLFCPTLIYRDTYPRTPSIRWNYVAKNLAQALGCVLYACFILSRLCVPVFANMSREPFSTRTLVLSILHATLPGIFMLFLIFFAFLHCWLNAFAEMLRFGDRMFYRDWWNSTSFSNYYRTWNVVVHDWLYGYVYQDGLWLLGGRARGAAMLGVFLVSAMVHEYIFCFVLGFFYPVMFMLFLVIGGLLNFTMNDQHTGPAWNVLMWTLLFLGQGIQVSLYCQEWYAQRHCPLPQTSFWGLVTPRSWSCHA
Description: ACAT inhibition activity (rabbit small intestinal microsome fraction, [1-^14 C]oleyl coenzyme A). It is filed as biochemical. As for the experimental part: (ACAT inhibition activity)
A rabbit small intestinal microsome fraction was prepared in the usual way, and the thus prepared microsome fraction was suspended in 0.04N potassiumphosphate buffer (pH 7.4) containing 0.1N sucrose, 0.03N ethylenediaminetetraacetic acid (EDTA) and 0.05N potassium chloride. Each of the drugs to be tested was dissolved in dimethyl sulfoxide.
The rabbit small intestinal microsome fraction suspension prepared above (250 μg as protein) and [1-^14 C]oleyl coenzyme A were added to 0.05N phosphate buffer (pH 7.4) containing 1% bovine serum albumin, followed by the addition of a drug to be tested with varied concentration,and the total volume was adjusted to 500 μl. The thus prepared mixture was incubated at 37° C. for 6 minutes, and the reaction was terminated by adding a mixture of chloroform and methanol (mixing ratio=2:1). After stirring, the resulting chloroform layer was collected and dried by concentration. […] A gel portion corresponding to cholesterol oleate was cut out and its radioactivity was measured using a liquid scintillation counter (LSC-3000, manufactured by Aroka Co., Ltd.). Samples obtained without using the drugs to be tested were also treated and measured in the same manner.
ACAT activity inhibition ratio (%)=(A-B)/B×100
A: ACAT activity when a drug to be tested is administered.
B: ACAT activity when a drug to be tested is not admistered.

Setting [1] is: rabbit small intestinal microsome fraction (250 μg as protein), 37° C., 6 minutes, pH 7.4, 1% bovine serum albumin, read-out: Activity (strength of the activity, IC50 value).

Where two headings read alike, the source gives them in different places.

What is called IC50 is the point on the concentration scale where inhibition reaches its midpoint. On to `CCCCCCCCCCCCCCCCCCSCC(=O)Nc1c(C(C)C)cccc1C(C)C` [Compound 6, N-(2,6-diisopropylphenyl)-2-(octadecylthio)acetamide], for which the IC50 under setting [1] fell in the range of 1 to 10 nM.

Regarding `CCCCCCCCCCCCS(=O)(=O)CC(=O)Nc1c(C(C)C)cccc1C(C)C` [Compound 17, N-(2,6-diisopropylphenyl)-2-(dodecylsulfonyl)acetamide], the IC50 under setting [1] was 10 to 100 nM.

Consider `CCCCCCCCCCCCSCC(=O)Nc1c(C(C)C)cccc1C(C)C` [Compound 4, N-(2,6-diisopropylphenyl)-2-(dodecylthio)acetamide], for which, under setting [1], the 50% inhibitory concentration (IC50) was 10 to 100 nM.

For `CCCCCCCCCCCCCC[S+]([O-])CC(=O)Nc1c(C(C)C)cccc1C(C)C` (stereo not shown) [Compound 13], the IC50 under setting [1] lay within 10 to 100 nM.

With `CCCCCCCCCCCCCCCCS(=O)(=O)CC(=O)Nc1c(C(C)C)cccc1C(C)C` [Compound 18, N-(2,6-diisopropylphenyl)-2-(hexadecylsulfonyl)acetamide], the IC50 under setting [1] is 10 to 100 nM.

As to `CCCCCCCCCCCCCCSCC(=O)Nc1c(C(C)C)cccc1C(C)C` [Compound 1, N-(2,6-diisopropylphenyl)-2-(tetradecylthio)acetamide], the IC50 fell in the range of 1 to 10 nM.

For the compound `CCCCCCCCCCCCCCSC(C)(C)C(=O)Nc1c(C(C)C)cccc1C(C)C` [Compound 9, N-(2,6-diisopropylphenyl)-2-methyl-2-(tetradecylthio)propanamide], the IC50 under setting [1] lay in the range of 10 to 100 nM.

Consider `CC(C)c1cccc(C(C)C)c1NC(=O)CSCc1ccc(C(C)(C)C)cc1` [Compound 8, N-(2,6-diisopropylphenyl)-2-(4-t-butylbenzylthio)acetamide], for which the half-inhibitory concentration (IC50) under setting [1] lay in the range of 10 to 100 nM.

With `CCCCCCCCCCCCCCSCCCC(=O)Nc1c(C(C)C)cccc1C(C)C` [Compound 10, N-(2,6-diisopropylphenyl)-4-(tetradecylthio)butanamide], the half-maximal inhibitory concentration (IC50) under setting [1] was in the range of 1 to 10 nM.

As to `CCCCCCCCCCCCCCCCSCC(=O)Nc1c(C(C)C)cccc1C(C)C` [Compound 5, N-(2,6-diisopropylphenyl)-2-(hexadecylthio)acetamide], under setting [1], the concentration for half-maximal inhibition (IC50) lay within 10 to 100 nM.

As for `CCCCCCCCCCCCCCSCCC(=O)Nc1c(C(C)C)cccc1C(C)C` [Compound 12, N-(2,6-diisopropylphenyl)-3-(tetradecylthio)propanamide], the half-inhibitory concentration (IC50) under setting [1] lay in the range of 1 to 10 nM.

On to `CCCCCCCCCCCCCCS(=O)(=O)CC(=O)Nc1c(C(C)C)cccc1C(C)C` [Compound 14, N-(2,6-diisopropylphenyl)-2-(tetradecylsulfonyl)acetamide], for which the IC50 under setting [1] was 10 to 100 nM.

On to `CCCCCCCCCCCCCCSCC(=O)Nc1c(C)cccc1C(C)(C)C` [Compound 24, N-(2-methyl-6-t-butylphenyl)-2-(tetradecylthio)acetamide], for which the IC50 under setting [1] fell in the range of 1 to 10 nM.

For the origin of these results see patent US5475130A, “Anilide derivative” (Taisho Pharmaceutical Co., Ltd., priority 1990, dated 1995).
